Measurements reported in patent US20120029187A1, “HALOALKYLSULFONANILIDE DERIVATIVE” (Nissan Chemical Industries, Ltd., priority 2009, published 2012).

Experiments:
Type in all cases: in vivo
barnyardgrass [1] = test: Test Example 1: herbicidal effects in preemergence treatment under submerged conditions; conditions: dose 2.52 g/a
Outline: (§1)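 Alluvial soil was flooded to 4 cm, sown with barnyardgrass, bulrush and ducksalad, and planted with 2.5-leaf rice seedlings. On the seeding day, water-diluted emulsifiable concentrates were applied to the water surface at set doses (g/a). After three weeks in a 25 to 30° C. greenhouse, mortality was scored 0–5.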

bulrush [2] = test: as above; conditions: dose 2.52 g/a
Outline: as §1

ducksalad [3] = test: as above; conditions: dose 2.52 g/a
Outline: as §1

transplanted rice = test: Test Example 1: preemergence treatment under submerged conditions, effect on crop; conditions: dose 2.52 g/a
Outline: as §1

barnyardgrass [4] = test: Test Example 2: herbicidal effects during the vegetation period under submerged conditions; conditions: treatment during the vegetation period under submerged conditions; dose 2.52 g/a
Outline: (§2)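 Barnyardgrass, bulrush and ducksalad were co-sown in alluvial soil flooded to 4 cm and grown in a greenhouse at 25 to 30° C. At the 1- or 2-leaf stage, water-diluted emulsifiable concentrates went onto the water surface at set doses (g/a). Herbicidal effect was scored three weeks later on a graded scale.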

bulrush [5] = test: as above; conditions: treatment during the vegetation period under submerged conditions; dose 2.52 g/a
Outline: as §2

ducksalad [6] = test: as above; conditions: treatment during the vegetation period under submerged conditions; dose 2.52 g/a
Outline: as §2

Italian ryegrass [7] = test: Test Example 3: herbicidal effects in soil treatment; conditions: dose 6.3 g/a
Outline: (§3)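 Seeds were sown in sterilized diluvial soil and covered with about 1.5 cm of soil. Compounds, formulated as emulsifiable concentrates and diluted with water, were sprayed evenly over the soil surface at set doses in g/a. Herbicidal effect was scored on a rating scale three weeks later.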

barnyardgrass [8] = test: as above; conditions: dose 6.3 g/a
Outline: as §3

common chickweed [9] = test: as above; conditions: dose 6.3 g/a
Outline: as §3

common lambsquater [10] = test: as above; conditions: dose 6.3 g/a
Outline: as §3

common ragweed [11] = test: as above; conditions: dose 6.3 g/a
Outline: as §3

giant foxtail [12] = test: as above; conditions: dose 6.3 g/a
Outline: as §3

large crabgrass [13] = test: as above; conditions: dose 6.3 g/a
Outline: as §3

redroot pigweed [14] = test: as above; conditions: dose 6.3 g/a
Outline: as §3

water foxtail [15] = test: as above; conditions: dose 6.3 g/a
Outline: as §3

wild oat [16] = test: as above; conditions: dose 6.3 g/a
Outline: as §3

Italian ryegrass [17] = test: Test Example 4: herbicidal effect in foliage treatment; conditions: dose 6.3 g/a, three weeks after application
Outline: (§4)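 Herbicidal effect was rated on an evaluation scale three weeks after treatment. Plants had been raised 14 days at 25 to 30° C in sterilized diluvial soil, then received foliar sprays of emulsifiable concentrate diluted in water at predetermined doses expressed as g per are.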

barnyardgrass [18] = test: as above; conditions: dose 6.3 g/a, three weeks after application
Outline: as §4

beadstraw = test: as above; conditions: dose 6.3 g/a, three weeks after application
Outline: as §4

common chickweed [19] = test: as above; conditions: dose 6.3 g/a, three weeks after application
Outline: as §4

common lambsquater [20] = test: as above; conditions: dose 6.3 g/a, three weeks after application
Outline: as §4

common ragweed [21] = test: as above; conditions: dose 6.3 g/a, three weeks after application
Outline: as §4

giant foxtail [22] = test: as above; conditions: dose 6.3 g/a, three weeks after application
Outline: as §4

large crabgrass [23] = test: as above; conditions: dose 6.3 g/a, three weeks after application
Outline: as §4

redroot pigweed [24] = test: as above; conditions: dose 6.3 g/a, three weeks after application
Outline: as §4

water foxtail [25] = test: as above; conditions: dose 6.3 g/a, three weeks after application
Outline: as §4

wild oat [26] = test: as above; conditions: dose 6.3 g/a, three weeks after application
Outline: as §4

| Compound | A: barnyardgrass, herbicidal effect (evaluation scale 0-5) (barnyardgrass [1]) | B: bulrush, herbicidal effect (evaluation scale 0-5) (bulrush [2]) | C: ducksalad, herbicidal effect (evaluation scale 0-5) (ducksalad [3]) | a: transplanted rice, effect on crop (evaluation scale 0-5) (transplanted rice) | A: barnyardgrass, herbicidal effect (evaluation scale 0-5) (barnyardgrass [4]) | B: bulrush, herbicidal effect (evaluation scale 0-5) (bulrush [5]) | C: ducksalad, herbicidal effect (evaluation scale 0-5) (ducksalad [6]) | H: Italian ryegrass, herbicidal effect (evaluation scale 0-5) (Italian ryegrass [7]) | A: barnyardgrass, herbicidal effect (evaluation scale 0-5) (barnyardgrass [8]) | N: common chickweed, herbicidal effect (evaluation scale 0-5) (common chickweed [9]) | L: common lambsquater, herbicidal effect (evaluation scale 0-5) (common lambsquater [10]) | J: common ragweed, herbicidal effect (evaluation scale 0-5) (common ragweed [11]) | E: giant foxtail, herbicidal effect (evaluation scale 0-5) (giant foxtail [12]) | D: large crabgrass, herbicidal effect (evaluation scale 0-5) (large crabgrass [13]) | K: redroot pigweed, herbicidal effect (evaluation scale 0-5) (redroot pigweed [14]) | G: water foxtail, herbicidal effect (evaluation scale 0-5) (water foxtail [15]) | F: wild oat, herbicidal effect (evaluation scale 0-5) (wild oat [16]) | H: Italian ryegrass, herbicidal effect (Italian ryegrass [17]) | A: barnyardgrass, herbicidal effect (barnyardgrass [18]) | O: beadstraw, herbicidal effect (beadstraw) | other results |
| --- | --- | --- | --- | --- | --- | --- | --- | --- | --- | --- | --- | --- | --- | --- | --- | --- | --- | --- | --- | --- | --- |
| CC(C)COC(=O)N(c1ccccc1CN1COC(C)CC1=O)S(=O)(=O)C(F)(F)F (centres unmarked) [II-8] | 5 (mortality of 90% or above (nearly complete death)) | 5 (mortality of 90% or above (nearly complete death)) | 5 (mortality of 90% or above (nearly complete death)) | 0 (mortality of less than 5% (almost ineffective)) | 5 (mortality of 90% or above (nearly complete death)) | 5 (mortality of 90% or above (nearly complete death)) | 4 (mortality of at least 70% and less than 90%) | 0 (mortality of less than 5% (almost ineffective)) | 5 (mortality of 90% or above (nearly complete death)) | 3 (mortality of at least 40% and less than 70%) | 4 (mortality of at least 70% and less than 90%) | 5 (mortality of 90% or above (nearly complete death)) | 4 (mortality of at least 70% and less than 90%) | 4 (mortality of at least 70% and less than 90%) | 0 (mortality of less than 5% (almost ineffective)) | 5 (mortality of 90% or above (nearly complete death)) | 0 (mortality of less than 5% (almost ineffective)) | 0 (mortality of less than 5% (almost ineffective)) | 5 (mortality of 90% or above (nearly complete death)) | 1 (mortality of at least 5% and less than 20%) | N: common chickweed, herbicidal effect (common chickweed [19]): 1 (mortality of at least 5% and less than 20%); L: common lambsquater, herbicidal effect (common lambsquater [20]): 5 (mortality of 90% or above (nearly complete death)); J: common ragweed, herbicidal effect (common ragweed [21]): 4 (mortality of at least 70% and less than 90%); E: giant foxtail, herbicidal effect (giant foxtail [22]): 4 (mortality of at least 70% and less than 90%); D: large crabgrass, herbicidal effect (large crabgrass [23]): 5 (mortality of 90% or above (nearly complete death)); K: redroot pigweed, herbicidal effect (redroot pigweed [24]): 0 (mortality of less than 5% (almost ineffective)); G: water foxtail, herbicidal effect (water foxtail [25]): 5 (mortality of 90% or above (nearly complete death)); F: wild oat, herbicidal effect (wild oat [26]): 0 (mortality of less than 5% (almost ineffective)) |
| CC(C)COC(=O)N(c1ccccc1CN1COC(C)(C)CC1=O)S(=O)(=O)C(F)(F)F [II-26] | 5 (mortality of 90% or above (nearly complete death)) | 5 (mortality of 90% or above (nearly complete death)) | 5 (mortality of 90% or above (nearly complete death)) | 0 (mortality of less than 5% (almost ineffective)) | 5 (mortality of 90% or above (nearly complete death)) | 5 (mortality of 90% or above (nearly complete death)) | 5 (mortality of 90% or above (nearly complete death)) | 3 (mortality of at least 40% and less than 70%) | 5 (mortality of 90% or above (nearly complete death)) | 2 (mortality of at least 20% and less than 40%) | 0 (mortality of less than 5% (almost ineffective)) | 5 (mortality of 90% or above (nearly complete death)) | 4 (mortality of at least 70% and less than 90%) | 5 (mortality of 90% or above (nearly complete death)) | 0 (mortality of less than 5% (almost ineffective)) | 5 (mortality of 90% or above (nearly complete death)) | 0 (mortality of less than 5% (almost ineffective)) | 3 (mortality of at least 40% and less than 70%) | 4 (mortality of at least 70% and less than 90%) | 4 (mortality of at least 70% and less than 90%) | N: common chickweed, herbicidal effect (common chickweed [19]): 3 (mortality of at least 40% and less than 70%); L: common lambsquater, herbicidal effect (common lambsquater [20]): 0 (mortality of less than 5% (almost ineffective)); J: common ragweed, herbicidal effect (common ragweed [21]): 5 (mortality of 90% or above (nearly complete death)); E: giant foxtail, herbicidal effect (giant foxtail [22]): 4 (mortality of at least 70% and less than 90%); D: large crabgrass, herbicidal effect (large crabgrass [23]): 4 (mortality of at least 70% and less than 90%); K: redroot pigweed, herbicidal effect (redroot pigweed [24]): 0 (mortality of less than 5% (almost ineffective)); G: water foxtail, herbicidal effect (water foxtail [25]): 5 (mortality of 90% or above (nearly complete death)); F: wild oat, herbicidal effect (wild oat [26]): 0 (mortality of less than 5% (almost ineffective)) |
